Test results reported in patent US8232289B2, “Spiropiperidine compounds as ORL-1 receptor antagonists” (Eli Lilly and Company, priority 2009, dated 2012).
Read-outs that look alike come from different tables or passages of the source.

Tests used:
Histamine H1 = Histamine H1 (Homo sapiens, UniProt P35367); assay: Radioligand binding selectivity, Histamine H1
From the text: (§1) Similarly, Ki for the mu, kappa and delta opioids, serotonin, dopamine, adrenergic, mucarinic, and histamine receptors, as well as binding to the norepinephrine transporter, sodium channel, chloride channel, and calcium channel may be determined using membranes expressing the desired receptor/transporter/channels and appropriate corresponding radioligand competitor molecules.

[1] = target: T1, nociceptin/ORL1 receptors (Rattus norvegicus, UniProt P35370); assay: In vivo receptor occupancy (LC/MS/MS, RO Tracer) in hypothalamus; set-up: species or system rats; conditions: for receptor occupancy at 3 mg/kg: rat hypothalamus, 3 mg/kg oral dose, after 6 hr.
T1 construct: from tissue; host or cells: rat hypothalamus (in vivo)
Description: Receptor occupancy (RO) using LC/MS/MS has been established as a way to measure central target engagement of putative ORL-1 antagonist in vivo. Nociceptin/ORL1 receptor occupancy (RO) is measured in the hypothalamus, a structure which contains a high density of nociceptin/ORL1 binding sites that are inside the blood brain barrier, using a novel proprietary nociceptin/ORL1 antagonist RO tracer, 2-[(2-fluorophenyl)methyl]-3-(2-fluorospiro[4,5-dihydrothieno[2,3-c]pyran-7,4′-piperidine]-1′-yl)-N,N-dimethyl-propanamide, (RO Tracer). These measurements are made without the need for a radiolabeled tracer as previously published for other receptors with modifications (Chemet E, Martin L J, Li D, Need A B, Barth V N, Rash K S, Phebus L A. Use of LC/MS to assess brain tracer distribution in preclinical, in vivo receptor occupancy studies: dopamine D2, serotonin 2A and NK-1 receptors as examples. Life Sci. 78(4):340-6, 2005.). A positive correlation has been established between central nociceptin/ORL1 RO and efficacy in the modulation of the feeding behavior and forced swim test in rodents. Central nociceptin/ORL1 RO is measured at 6 or 24 hours following oral administration of the test compound to rats. Male Sprague-Dawley rats (Harlan Sprague-Dawley, Indianapolis, Ind.) are treated orally with a test compound, or vehicle (20% Captisol, 25 mM phosphate buffer, pH 2.0). At 6 or 24 hours following administration of test compound/vehicle, all animals are administered an intravenous, 3 ng/kg dose of RO Tracer. It is at the time of RO Tracer administration that RO is considered to be measured. Forty minutes after RO Tracer administration, rats are sacrificed by cervical dislocation and the hypothalamus is removed. The level of RO Tracer is measured in each tissue sample.
The centrally active literature reference standard (−)-cis-1-methyl-7-[[4-(2,6-dichlorophenyl)piperidin-1-yl]methyl]-6,7,8,9-tetrahydro-5H-benzocyclohepten-5-ol (SB612111, see Magdalena and Heisler, supra), a potent nociceptin/ORL1 receptor selective antagonist, is used as a positive control to establish the RO Tracer level associated with 100% nociceptin/ORL1 RO. […]
Hypothalamic samples are homogenized in 4 volumes (w/v) of acetonitrile containing 0.1% formic acid and centrifuged at 14,000 RPM for 16 min. […] Detection of RO Tracer is accomplished by monitoring the precursor to product ion transition with a mass to charge ratio (m/z) of 435 to 239, with levels quantified by comparison to standards prepared in brain tissue homogenates. Zero percent RO is calculated as the level of RO Tracer in the hypothalamus of vehicle-pretreated animals, which represents the sum of nonspecific and specific binding (all receptors available to the tracer). […]

Kappa Opioid = Kappa Opioid (Homo sapiens, UniProt P41145); assay: Radioligand binding selectivity, Kappa Opioid
From the text: as §1

Adenosine A3 = Adenosine A3 (Homo sapiens, UniProt P0DMS8); assay: Radioligand binding selectivity, Adenosine A3
[2] = system: wild type and ORL knockout mice; assay: Blockade of fasting-induced hyperphagia in mice; type: in vivo
From the text: Blockade of fasting-induced hyperphagia in rodents is an accepted model for hyperphagic eating disorders. […] Mice are individually housed a minimum of 3 days prior to the onset of testing to eliminate any effects of stress due to the change from group to individual housing. Three mice/genotype are randomly assigned to each treatment group on the test day. Pre-fast body weight measurements are taken, and food is then removed from cages overnight. Mice are fasted for approximately 15 hr. The next morning, the mice are given one of three doses of drug or vehicle via oral gavage 30 min. prior to gaining access to food. Drugs are dissolved in 20% Captisol dissolved in 25 mM phosphate buffer, pH 2.0. Measurements of body weight are taken immediately prior to drug treatment or 24 hr. after access to food is restored. […] Measurements of food intake are recorded 1 hr following access to food, as indicated, by weight of food remaining at 1 hr. It should be noted that food intake measured is during the light phase, a time during which mice are typically at rest and not normally eating. Following initial testing, mice are rested for 1 week with access to unlimited chow.

Cl− channel = assay: Radioligand binding selectivity, Cl− channel
From the text: as §1

[3] = wild type mice, oral gavage 30 min. prior to food, food intake at 1 hr

Chain of Kappa Opioid (P41145 whole entry): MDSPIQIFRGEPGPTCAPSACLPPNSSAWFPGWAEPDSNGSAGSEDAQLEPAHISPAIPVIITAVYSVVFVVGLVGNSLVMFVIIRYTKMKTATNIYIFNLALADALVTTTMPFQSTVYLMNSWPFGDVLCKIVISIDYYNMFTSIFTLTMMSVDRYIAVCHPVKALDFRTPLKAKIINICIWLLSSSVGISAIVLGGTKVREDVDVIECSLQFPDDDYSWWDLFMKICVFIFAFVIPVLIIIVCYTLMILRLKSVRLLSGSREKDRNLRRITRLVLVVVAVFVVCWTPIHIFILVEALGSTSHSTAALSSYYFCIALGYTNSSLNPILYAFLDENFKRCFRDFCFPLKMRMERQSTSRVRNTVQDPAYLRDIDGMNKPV
T1 sequence (P35370 whole entry): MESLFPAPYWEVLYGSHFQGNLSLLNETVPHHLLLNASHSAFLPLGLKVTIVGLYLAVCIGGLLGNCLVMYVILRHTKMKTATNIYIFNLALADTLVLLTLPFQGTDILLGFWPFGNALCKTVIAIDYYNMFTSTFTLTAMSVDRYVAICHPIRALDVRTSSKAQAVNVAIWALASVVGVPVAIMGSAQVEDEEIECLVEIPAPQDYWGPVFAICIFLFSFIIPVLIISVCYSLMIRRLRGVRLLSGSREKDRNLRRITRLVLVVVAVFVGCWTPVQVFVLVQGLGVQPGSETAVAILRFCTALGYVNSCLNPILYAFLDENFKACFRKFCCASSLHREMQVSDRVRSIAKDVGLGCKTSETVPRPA
Chain of Histamine H1 (P35367 whole entry): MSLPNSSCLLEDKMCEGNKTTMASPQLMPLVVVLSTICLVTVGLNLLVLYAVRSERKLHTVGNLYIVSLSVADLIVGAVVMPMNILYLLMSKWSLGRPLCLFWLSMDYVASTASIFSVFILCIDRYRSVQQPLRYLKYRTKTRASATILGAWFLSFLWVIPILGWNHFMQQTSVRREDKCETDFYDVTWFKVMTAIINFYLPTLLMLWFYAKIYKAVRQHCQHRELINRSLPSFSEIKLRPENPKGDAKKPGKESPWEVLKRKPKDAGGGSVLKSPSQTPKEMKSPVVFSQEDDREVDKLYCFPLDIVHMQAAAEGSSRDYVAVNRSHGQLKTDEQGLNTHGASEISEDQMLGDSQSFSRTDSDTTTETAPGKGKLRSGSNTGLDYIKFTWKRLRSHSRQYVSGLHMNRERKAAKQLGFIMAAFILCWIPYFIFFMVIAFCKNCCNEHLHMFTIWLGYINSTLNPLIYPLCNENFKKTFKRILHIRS
Chain of Adenosine A3 (P0DMS8 whole entry): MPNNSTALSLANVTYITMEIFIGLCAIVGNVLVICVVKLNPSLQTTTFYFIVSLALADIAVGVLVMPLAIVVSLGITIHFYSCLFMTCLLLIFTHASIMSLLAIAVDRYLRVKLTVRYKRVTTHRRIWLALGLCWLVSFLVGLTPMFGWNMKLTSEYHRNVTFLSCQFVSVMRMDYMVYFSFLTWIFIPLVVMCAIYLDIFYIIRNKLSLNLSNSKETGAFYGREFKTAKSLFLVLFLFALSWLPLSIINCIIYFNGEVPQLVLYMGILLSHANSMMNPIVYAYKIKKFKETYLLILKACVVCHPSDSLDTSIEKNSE

SMILES: O=C(O)C(O)C(O)C(=O)O.OCc1nn(-c2ncccc2F)cc1CN1CCC2(CC1)OCC(F)(F)c1cc(Cl)sc12 [Example 53, [4-[(2-Chloro-4,4-difluoro-spiro[5H-thieno[2,3-c]pyran-7,4′-piperidine]-1′-yl)methyl]-1-(3-fluoro-2-pyridyl)pyrazol-3-yl]methanol (L)-Tartrate]
- Ki (Histamine H1): > 5000 nM
- receptor occupancy at 3 mg/kg [1]: 83%
- Ki (Kappa Opioid): > 430 nM
- Ki (Adenosine A3): > 5000 nM
- effect on fasting-induced hyperphagia ([2]; ORL-1 knockout mouse strain): not observed
- effect on fasting-induced hyperphagia [2, 3]: substantially block fasting-induced hyperphagia
- Ki (Cl− channel): > 500 nM

SMILES: Cc1nn(-c2ncccc2Cn2cccn2)cc1CN1CCC2(CC1)OCC(F)(F)c1cc(Cl)sc12.O=C(O)C(O)C(O)C(=O)O [Example 23, 2-Chloro-4,4-difluoro-1′-[[3-methyl-1-[3-(pyrazol-1-ylmethyl)-2-pyridyl]pyrazol-4-yl]methyl]spiro[5H-thieno[2,3-c]pyran-7,4′-piperidine] (L)-Tartrate]
- receptor occupancy at 3 mg/kg [1]: 80%
- Ki (Kappa Opioid): > 430 nM
- effect on fasting-induced hyperphagia ([2]; ORL-1 knockout mouse strain): not observed
- effect on fasting-induced hyperphagia [2, 3]: substantially block fasting-induced hyperphagia

SMILES: Cc1nn(-c2ncccc2CO)cc1CN1CCC2(CC1)OCC(F)(F)c1cc(Cl)sc12 [Example 62, [2-[4-[(2-Chloro-4,4-difluoro-spiro[5H-thieno[2,3-c]pyran-7,4′-piperidine]-1′-yl)methyl]-3-methyl-pyrazol-1-yl]-3-pyridyl]methanol]
- Ki (Histamine H1): > 5000 nM
- in vivo plasma concentration necessary to produce 80 percent RO (EC80 RO) ([1]; nociceptin/ORL1 receptors in the CNS): approximately 41 nM
- receptor occupancy at 3 mg/kg [1]: 104%
- Ki (Kappa Opioid; read-out: Ki Kappa Opioid): > 430 nM
- Ki (Adenosine A3): > 5000 nM
- effect on fasting-induced hyperphagia ([2]; ORL-1 knockout mouse strain): not observed
- effect on fasting-induced hyperphagia [2, 3]: substantially block fasting-induced hyperphagia
- Ki (Cl− channel): > 500 nM
